Assay: Antiinflammatory activity in rat polymorphonuclear leukocytes assessed as inhibition of platelet activating factor-induced release of beta-glucuronidase at 10 uM after 15 mins
Type: functional
Settings: 0.25 h

Point of comparison: COc1cc(O[C@@H]2O[C@H](COC(=O)c3ccc(O[C@@H]4O[C@H](COC(=O)c5cc(OC)c(O)c(OC)c5)[C@@H](O)[C@H](O)[C@H]4O)c(OC)c3)[C@@H](O)[C@H](O)[C@H]2O)ccc1O, inhibition at 10 µM 25.2%. Against it:
- COc1cc(C(=O)OC[C@H]2O[C@@H](OC(=O)c3cc(OC)c(O)c(OC)c3)[C@H](O)[C@@H](O)[C@@H]2O)ccc1O[C@@H]1O[C@H](COC(=O)c2cc(OC)c(O)c(OC)c2)[C@@H](O)[C@H](O)[C@H]1O — lower, 6%
- COC(=O)C1=CO[C@@H](O[C@@H]2O[C@H](CO[C@@H]3O[C@@H](C)[C@H](O)[C@@H](O)[C@H]3O)[C@@H](O)[C@H](O)[C@H]2O)[C@@H]2C(CO)=CC[C@H]12 — higher, 44.8%
- C[C@@H]1C(=O)O[C@H]2[C@H](O)[C@@]34[C@H]5C[C@@H](C(C)(C)C)[C@]36[C@@H](OC(=O)[C@@H]6O)O[C@@]4(C(=O)O5)[C@@]12O [GINKOLIDE B] — higher, 78.8%
- COc1cc(O)ccc1O[C@@H]1O[C@H](COC(=O)c2ccc(O[C@@H]3O[C@H](COC(=O)c4cc(OC)c(O)c(OC)c4)[C@@H](O)[C@H](O)[C@H]3O)c(OC)c2)[C@@H](O)[C@H](O)[C@H]1O — higher, 43.6%
- COc1cc(C(=O)O)ccc1O[C@@H]1O[C@H](COC(=O)c2ccc(O[C@@H]3O[C@H](COC(=O)c4cc(OC)c(O)c(OC)c4)[C@@H](O)[C@H](O)[C@H]3O)c(OC)c2)[C@@H](O)[C@H](O)[C@H]1O — higher, 60.2%

Source: ChEMBL document CHEMBL1149854, “Glycosides from the bark of Adina polycephala” (2008)
